According to patent US20170305857A1, “N-ACYLPIPERIDINE ETHER TROPOMYOSIN-RELATED KINASE INHIBITORS” (Pfizer Limited, priority 2014, published 2017):

molecular target: T1, recombinant His-tagged cytoplasmic domains of TRKA receptor (NTRK1, PV3144, aa 441-796) (Homo sapiens, UniProt P04629); assay: Isolated TRK enzyme assay (HTRF KinEASE-TK, PV3144 TrkA enzyme assay); type: biochemical; details: 4 nM enzyme, 40 uM ATP, 35 min, arithmetic mean where more than one reading
T1 construct: aa 441-796; His; purchased Invitrogen PV3144
Protocol: Isolated TRK Enzyme assays use the HTRF KinEASE-TK kit (Cisbio Cat #62TK0PEJ) with recombinant His-tagged cytoplasmic domains of TRKA receptor sourced from Invitrogen (see table below). This activity-assay measures the phosphorylation of tyrosine residues within a substrate from the HTRF kit which has been validated by Cisbio for a variety of tyrosine kinases including the TRK receptors.
0.5 mM stock solutions of test compounds are prepared and serially diluted in 100% DMSO. […] Greiner low volume black plates containing 0.2 ul of serially diluted compound, standard and HPE/ZPE are created using the Bravo nanolitre dispenser.
1× enzyme buffer is prepared from 5× Enzymatic Buffer from the Cisbio KinEASE TK kit using MilliQ water. The buffer is then supplemented with 10 mM MgCl and 2 mM DTT (both from Sigma).
Following this preactivation step, 5 ul/well of enzyme+ATP mix is added using a Multidrop Micro to the assay plate, spotted with 0.2 ul 100% DMSO compound. This is left for 20 mins at room temperature before adding 5 ul of 2 uM TK-substrate-Biotin (from the Cisbio kit) diluted in 1× enzyme buffer (1 uM FAC) using the Multidrop Micro. The reaction is incubated at room temperature for the optimized assay reaction time (see table).
After the Detection Reagent addition, plates are covered and incubated at room temperature for 60 minutes. […] Test compound data are expressed as percentage inhibition defined by HPE and ZPE values for each plate. Percentage inhibition in the presence of test compound is plotted against compound concentration on a log scale to determine an IC50 from the resultant sigmoid curve.
Where more than one reading was taken, the arithmetic mean is presented.

T1 sequence (P04629 441-796): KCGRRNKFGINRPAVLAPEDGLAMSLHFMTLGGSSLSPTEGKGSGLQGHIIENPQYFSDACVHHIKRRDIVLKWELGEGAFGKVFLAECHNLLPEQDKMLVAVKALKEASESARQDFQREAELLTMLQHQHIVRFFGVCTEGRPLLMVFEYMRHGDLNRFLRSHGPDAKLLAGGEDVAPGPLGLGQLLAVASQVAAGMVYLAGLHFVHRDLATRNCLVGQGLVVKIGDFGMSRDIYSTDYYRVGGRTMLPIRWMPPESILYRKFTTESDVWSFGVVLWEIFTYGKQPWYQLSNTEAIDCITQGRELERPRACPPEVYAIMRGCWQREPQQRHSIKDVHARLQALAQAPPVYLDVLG

IC50 [nM] | SMILES
1.2 | NC(=O)c1cc(-c2cnn(C3CS(=O)(=O)C3)c2)cnc1O[C@H]1CCN(C(=O)Cc2ccc(OC(F)(F)F)cc2)C[C@H]1F [Example 22, 5-[1-(1,1-dioxidothietan-3-yl)-1H-pyrazol-4-yl]-2-{[(3R,4S)-3-fluoro-1-{[4-(trifluoromethoxy)phenyl]acetyl}piperidin-4-yl]oxy}pyridine-3-carboxamide]
1.4 | NC(=O)c1cc(-c2cnn(C3CS(=O)(=O)C3)c2)cnc1O[C@@H]1CCN(C(=O)Cc2ccc(OC(F)(F)F)cc2)C[C@@H]1F [Example 23, 5-[1-(1,1-dioxidothietan-3-yl)-1H-pyrazol-4-yl]-2-{[(3S,4R)-3-fluoro-1-{[4-(trifluoromethoxy)phenyl]acetyl}piperidin-4-yl]oxy}pyridine-3-carboxamide]
2.9 | CS(=O)(=O)Cn1cc(-c2cnc(O[C@@H]3CCN(C(=O)Cc4ccc(OC(F)(F)F)c(F)c4)C[C@@H]3F)c(C(N)=O)c2)cn1 [Example 24, 2-{[(3S,4R)-3-fluoro-1-{[3-fluoro-4-(trifluoromethoxy)phenyl]acetyl}pipertdin-4-yl]oxy}-5-{1-[(methylsulfonyl)methyl]-1H-pyrazol-4-yl}pyridine-3-carboxamide]
3.7 | CS(=O)(=O)Cn1cc(-c2cnc(O[C@H]3CCN(C(=O)Cc4ccc(OC(F)(F)F)cc4)C[C@@H]3F)c(C(N)=O)c2)cn1 [Example 25, 2-{[(3S,4S)-3-fluoro-1-{[4-(trifluoromethoxy)phenyl]acetyl}piperidin-4-yl]oxy}-5-{1-[(methylsulfonyl)methyl]-1H-pyrazol-4-yl}pyridine-3-carboxamide]
8.9 | CS(=O)(=O)Cn1cc(-c2cnc(O[C@H]3CCN(C(=O)Cc4ccc(OC(F)(F)F)c(F)c4)C[C@@H]3F)c(C(N)=O)c2)cn1 [Example 26, 2-{[(3S,4S)-3-fluoro-1-{[3-fluoro-4-(trifluoromethoxy)phenyl]acetyl}piperidin-4-yl]oxy}-5-{1-[(methylsulfonyl)methyl]-1H-pyrazol-4-yl}pyridine-3-carboxamide]
2.1 | Cn1cnc(-c2cnc(O[C@H]3CCN(C(=O)Cc4ccc(OC5CC5)cc4)C[C@@H]3F)c(C(N)=O)c2)c1 [Example 27, 2-{[(3S,4S)-1-{[4-(cyclopropyloxy)phenyl]acetyl}-3-fluoropiperidin-4-yl]oxy}-5-(1-methyl-1H-imidazol-4-yl)pyridine-3-carboxamide]
2.3 | CS(=O)(=O)Cn1cc(-c2cnc(O[C@@H]3CCN(C(=O)Cc4ccc(OC5CC5)cc4)C[C@@H]3F)c(C(N)=O)c2)cn1 [Example 28, 2-{[(3S,4R)-1-{[4-(cyclopropyloxy)phenyl]acetyl}-3-fluoropiperidin-4-yl]oxy}-5-{1-[(methylsulfonyl)methyl]-1H-pyrazol-4-yl}pyridine-3-carboxamide]
4.3 | Cn1cnc(-c2cnc(O[C@@H]3CCN(C(=O)Cc4ccc(OC5CC5)cn4)C[C@@H]3F)c(C(N)=O)c2)c1 [Example 29, 2-{[(3S,4R)-1-{[5-(cyclopropyloxy)pyridin-2-yl]acetyl}-3-fluoropiperidin-4-yl]oxy}-5-(1-methyl-1H-imidazol-4-yl)pyridine-3-carboxamide]
4.8 | CS(=O)(=O)Cn1cc(-c2cnc(O[C@H]3CCN(C(=O)Cc4ccc(OC5CC5)cc4)C[C@@H]3F)c(C(N)=O)c2)cn1 [Example 30, 2-{[(3S,4S)-1-{[4-(cyclopropyloxy)phenyl]acetyl}-3-fluoropiperidin-4-yl]oxy}-5-{1-[(methylsulfonyl)methyl]-1H-pyrazol-4-yl}pyridine-3-carboxamide]
9 | Cn1cnc(-c2cnc(O[C@H]3CCN(C(=O)Cc4ccc(OC5CC5)cn4)C[C@@H]3F)c(C(N)=O)c2)c1 [Example 31, 2-{[(3S,4S)-1-{[5-(cyclopropyloxy)pyridin-2-yl]acetyl}-3-fluoropiperidin-4-yl]oxy}-5-(1-methyl-1H-imidazol-4-yl)pyridine-3-carboxamide]
7.2 | CC(C)(O)Cn1cc(-c2cnc(O[C@@H]3CCN(C(=O)Cc4ccc(OC5CC5)cn4)C[C@@H]3F)c(C(N)=O)c2)cn1 [Example 32, 2-{[(3S,4R)-1-{[5-(cyclopropyloxy)pyridin-2-yl]acetyl}-3-fluoropiperidin-4-yl]oxy}-5-[1-(2-hydroxy-2-methylpropyl)-1H-pyrazol-4-yl]pyridine-3-carboxamide]
4.9 | CC(C)(O)Cn1cc(-c2cnc(O[C@H]3CCN(C(=O)Cc4ccc(OC5CC5)cn4)C[C@H]3F)c(C(N)=O)c2)cn1 [Example 33, 2-{[(3R,4S)-1-{[5-(cyclopropyloxy)pyridin-2-yl]acetyl}-3-fluoropiperidin-4-yl]oxy}-5-[1-(2-hydroxy-2-methylpropyl)-1H-pyrazol-4-yl]pyridine-3-carboxamide]
7.7 | CC(C)(O)Cn1cc(-c2ccc(O[C@H]3CCN(C(=O)Cc4ccc(OC5CC5)cn4)C[C@@H]3F)c(C(N)=O)c2)cn1 [Example 34, 2-{[(3S,4S)-1-{[5-(cyclopropyloxy)pyridin-2-yl]acetyl}-3-fluoropiperidin-4-yl]oxy}-5-[1-(2-hydroxy-2-methylpropyl)-1H-pyrazol-4-yl]benzamide]
7.7 | CS(=O)(=O)Cn1cc(-c2cc(C(N)=O)c(O[C@@H]3CCN(C(=O)Cc4ccc(OC5CC5)cc4)C[C@@H]3F)cn2)cn1 [Example 35, 5-{[(3S,4R)-1-{[4-(cyclopropyloxy)phenyl]acetyl}-3-fluoropiperidin-4-yl]oxy}-2-{1-[(methylsulfonyl)methyl]-1H-pyrazol-4-yl}pyridine-4-carboxamide]
3.4 | CS(=O)(=O)Cn1cc(-c2cc(C(N)=O)c(O[C@@H]3CCN(C(=O)Cc4ccc(OC(F)(F)F)cc4)C[C@@H]3F)cn2)cn1 [Example 36, 5-{[(3S,4R)-3-fluoro-1-{[4-(trifluoromethoxy)phenyl]acetyl}piperidin-4-yl]oxy}-2-{1-[(methylsulfonyl)methyl]-1H-pyrazol-4-yl}pyridine-4-carboxamide]
7.4 | CS(=O)(=O)Cn1cc(-c2cc(C(N)=O)c(O[C@@H]3CCN(C(=O)Cc4ccc(OC(F)(F)F)c(F)c4)C[C@@H]3F)cn2)cn1 [Example 37, 5-{[(3S,4R)-3-fluoro-1-{[3-fluoro-4-(trifluoromethoxy)phenyl]acetyl}piperidin-4-yl]oxy}-2-{1-[(methylsulfonyl)methyl]-1H-pyrazol-4-yl}pyridine-4-carboxamide]
3.1 | Cn1cnc(-c2ccc(O[C@H]3CCN(C(=O)Cc4ccc(OC5CC5)cc4)C[C@@H]3F)c(C(N)=O)c2)c1 [Example 42, 2-{[(3S,4S)-1-{[4-(cyclopropyloxy)phenyl]acetyl}-3-fluoropiperidin-4-yl]oxy}-5-(1-methyl-1H-imidazol-4-yl)benzamide]
2.2 | Cn1cnc(-c2ccc(O[C@H]3[C@@H]4CC[C@H]3CN(C(=O)Cc3ccc(OC(F)(F)F)cc3)C4)c(C(N)=O)c2)c1 [Example 46, 5-(1-methyl-1H-imidazol-4-yl)-2-(((1R,5S,8r)-3-(2-(4-(trifluoromethoxy)phenyl)acetyl)-3-azabicyclo[3.2.1]octan-8-yl)oxy)benzamide]
5.2 | Cn1cnc(-c2ccc(O[C@@H]3[C@@H]4CC[C@H]3CN(C(=O)Cc3ccc(OC(F)(F)F)cc3)C4)c(C(N)=O)c2)c1 [Example 47, 5-(1-methyl-1H-imidazol-4-yl)-2-(((1R,5S,8s)-3-(2-(4-(trifluoromethoxy)phenyl)acetyl)-3-azabicyclo[3.2.1]octan-8-yl)oxy)benzamide]
1.2 | Cn1cnc(-c2ccc(O[C@@H]3CCN(C(=O)Cc4ccc(OC(F)(F)F)cc4)C[C@H]3F)c(C(N)=O)c2)c1 [Example 53, 2-(((3R,4R)-3-fluoro-1-(2-(4-(trifluoromethoxy)phenyl)acetyl)piperidin-4-yl)oxy)-5-(1-methyl-1H-imidazol-4-yl)benzamide]
42.4 | NC(=O)c1cc(N2CCCC2)ncc1OC1CCN(C(=O)Cc2ccc(OC(F)(F)F)cc2)CC1 [Example 54, 2-(pyrrolidin-1-yl)-5-((1-(2-(4-(trifluoromethoxy)phenyl)acetyl)piperidin-4-yl)oxy)isonicotinamide]
1.8 | CS(=O)(=O)Cn1cc(-c2cnc(O[C@@H]3CCN(C(=O)Cc4ccc(OC(F)(F)F)cc4)C[C@@H]3F)c(C(N)=O)c2)cn1 [Example 55, 2-{[(3S,4R)-3-fluoro-1-{[4-(trifluoromethoxy)phenyl]acetyl}piperidin-4-yl]oxy}-5-{1-[(methylsulfonyl)methyl]-1H-pyrazol-4-yl}pyridine-3-carboxamide]
5.1 | NC(=O)c1cc(-c2c[nH]c(C3(O)COC3)n2)ccc1OC1CCN(C(=O)Cc2ccc(OC(F)(F)F)cc2)CC1 [Example 56, 5-[2-(3-hydroxyoxetan-3-yl)-1H-imidazol-5-yl]-2-[(1-{[4-(trifluoromethoxy)phenyl]acetyl}piperidin-4-yl)oxy]benzamide]

SMILES | IC50 [nM]
Cn1cnc(-c2ccc(O[C@@H]3C[C@H]4CC[C@@H](C3)N4C(=O)Cc3ccc(OC(F)(F)F)cc3)c(C(N)=O)c2)c1 [Example 48, 5-(1-methyl-1H-imidazol-4-yl)-2-(((1R,3s,5S)-8-(2-(4-(trifluoromethoxy)phenyl)acetyl)-8-azabicyclo[3.2.1]octan-3-yl)oxy)benzamide] | 3.6
